Reference: paper PMC8298633, “Cannabis constituents interact at the drug efflux pump BCRP to markedly increase plasma cannabidiolic acid concentrations” (Scientific Reports, 2021)
“And” between values parts separate entries of the source, which are not always exact repeats. Identical values can stand only once.

Legend:
BCRP [1] = molecular target: T1, BCRP (Homo sapiens, UniProt Q9UNQ0); test: Inhibition of BCRP-mediated transport of CBDA by cannabinoids (transwell, BCRP MDCK cells); conditions: BCRP MDCK cells; for P (A > B) of CBDA in the presence of inhibitor / P (B > A) of CBDA in the presence of inhibitor: cannabinoids tested at 10 µM
T1 sequence (Q9UNQ0 1-655): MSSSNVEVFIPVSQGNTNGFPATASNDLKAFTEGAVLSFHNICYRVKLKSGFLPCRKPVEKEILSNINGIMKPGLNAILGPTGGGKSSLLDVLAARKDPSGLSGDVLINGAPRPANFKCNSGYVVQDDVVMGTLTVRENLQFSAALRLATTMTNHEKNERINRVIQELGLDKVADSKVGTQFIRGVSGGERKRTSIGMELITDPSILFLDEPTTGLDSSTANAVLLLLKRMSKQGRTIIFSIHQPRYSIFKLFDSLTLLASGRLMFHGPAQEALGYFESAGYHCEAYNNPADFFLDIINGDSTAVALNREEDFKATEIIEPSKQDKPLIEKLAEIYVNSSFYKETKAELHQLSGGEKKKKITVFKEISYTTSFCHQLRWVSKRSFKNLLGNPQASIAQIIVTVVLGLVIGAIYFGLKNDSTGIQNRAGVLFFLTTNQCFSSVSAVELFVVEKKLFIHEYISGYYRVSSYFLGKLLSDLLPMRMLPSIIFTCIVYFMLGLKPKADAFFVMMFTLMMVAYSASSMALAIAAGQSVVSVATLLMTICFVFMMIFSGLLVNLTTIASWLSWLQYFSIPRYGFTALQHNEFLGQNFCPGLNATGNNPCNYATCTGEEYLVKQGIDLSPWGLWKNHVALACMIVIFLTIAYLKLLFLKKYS
Method: Cannabinoids were tested at 10 µM. […] Data are expressed as means ± SEM, with n = 4 per time point. […] Schematic created using BioRender.com.
(§1) Cannabinoids were analyzed as described above.

P-glycoprotein = P-glycoprotein (Homo sapiens, UniProt P08183); test: Bidirectional transwell substrate assay, MDCK cells expressing P-glycoprotein; conditions: for P (A > B): apical to basolateral; for P (B > A): basolateral to apical; for P-glycoprotein substrate status: human P-glycoprotein MDCK cells vs wildtype
P-glycoprotein, sequence (P08183 whole entry): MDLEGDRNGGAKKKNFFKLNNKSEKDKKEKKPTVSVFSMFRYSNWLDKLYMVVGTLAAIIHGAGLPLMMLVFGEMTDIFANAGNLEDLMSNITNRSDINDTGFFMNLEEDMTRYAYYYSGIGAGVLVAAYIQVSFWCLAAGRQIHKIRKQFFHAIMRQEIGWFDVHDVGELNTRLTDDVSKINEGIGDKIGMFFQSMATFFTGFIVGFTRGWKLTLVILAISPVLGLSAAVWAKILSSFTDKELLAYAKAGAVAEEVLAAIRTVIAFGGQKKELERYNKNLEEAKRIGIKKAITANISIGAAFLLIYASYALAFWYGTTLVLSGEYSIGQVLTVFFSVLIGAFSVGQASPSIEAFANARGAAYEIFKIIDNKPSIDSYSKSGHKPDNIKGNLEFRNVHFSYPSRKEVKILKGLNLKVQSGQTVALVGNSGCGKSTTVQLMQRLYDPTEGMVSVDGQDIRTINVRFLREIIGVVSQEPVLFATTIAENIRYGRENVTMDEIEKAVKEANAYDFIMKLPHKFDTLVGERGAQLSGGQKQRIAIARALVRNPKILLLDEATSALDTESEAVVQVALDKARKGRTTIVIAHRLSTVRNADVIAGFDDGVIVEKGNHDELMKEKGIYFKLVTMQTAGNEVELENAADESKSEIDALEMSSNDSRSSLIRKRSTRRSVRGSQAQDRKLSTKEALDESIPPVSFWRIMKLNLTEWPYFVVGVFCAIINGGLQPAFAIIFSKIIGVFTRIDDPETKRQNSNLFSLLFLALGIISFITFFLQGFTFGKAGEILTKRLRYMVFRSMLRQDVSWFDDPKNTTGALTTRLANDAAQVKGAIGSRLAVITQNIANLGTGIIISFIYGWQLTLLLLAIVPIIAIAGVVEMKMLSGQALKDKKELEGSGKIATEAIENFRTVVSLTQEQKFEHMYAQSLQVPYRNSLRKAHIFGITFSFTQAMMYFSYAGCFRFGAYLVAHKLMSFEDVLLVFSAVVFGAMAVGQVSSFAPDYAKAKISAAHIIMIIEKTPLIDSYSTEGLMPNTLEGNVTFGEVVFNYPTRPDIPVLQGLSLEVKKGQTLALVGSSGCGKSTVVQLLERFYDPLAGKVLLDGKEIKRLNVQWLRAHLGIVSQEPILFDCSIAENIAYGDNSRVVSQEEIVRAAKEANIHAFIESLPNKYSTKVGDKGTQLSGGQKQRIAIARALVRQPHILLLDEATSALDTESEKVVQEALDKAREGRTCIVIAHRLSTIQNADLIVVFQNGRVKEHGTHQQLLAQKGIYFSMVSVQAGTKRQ
Method: (§2) We first aimed to determine whether the cannabinoids found in the full-spectrum cannabis extract were substrates of P-glycoprotein and BCRP by using MDCK cells expressing human P-glycoprotein or BCRP in vitro. Transwell assays were conducted to assess bidirectional transport of the cannabinoids detected in plasma following administration of the full-spectrum cannabis extract (CBD, CBDA, CBDVA, CBGA, Δ^9-THC and Δ^9-THCA), including the respective neutral compounds (CBDV and CBG) across wildtype, BCRP and P-glycoprotein MDCK cell monolayers. […] BCRP and P-glycoprotein preferentially transport substrates in the B > A direction.
(§3) Media in the donor chamber was then replaced with that containing 10 µM of an individual cannabinoid in the presence of either vehicle or inhibitor and returned to 37 °C. Aliquots (25 or 50 µL) were removed from the accepter chamber at 60, 120, 180 and 240 min.
as §1

[2] = Pharmacokinetic study: plasma cannabinoids after single oral gavage of full-spectrum cannabis extract or individual cannabinoid; conditions: for Detection in plasma following oral administration of the full-spectrum extract: single oral dose of extract; for half-life: t1/2, mouse plasma
Method: Drugs were administered by oral gavage in a volume of 5 mL/kg. Wildtype male and female mice (postnatal day 21–28, P21-28) received a single oral gavage of either the full-spectrum cannabis extract or an individual cannabinoid. Cannabinoid doses within the full-spectrum extract or as an individual cannabinoid were as follows in mg/kg: CBDA and Δ^9-THCA, 50; CBD, 25; Δ^9-THC, 15; CBC, 9; CBDVA and CBGA, 7; CBN, 2.5; CBG, 1.5; CBDV and Δ^9-THCV, < 1 (Fig. 1a). At selected time points (15–240 min), mice were anesthetized with isoflurane and whole blood was collected by cardiac puncture. Plasma was isolated by centrifugation (9000 g for 10 min, 4 °C) and stored at − 80 °C until assayed.
Concentrations of cannabinoids in plasma samples were quantified as described previously, [24], [58]. […] The organic layer was isolated by centrifugation (4000 g for 10 min) and evaporated to dryness with N2. Samples were reconstituted in acetonitrile and 0.1% formic acid in water (1:3.3, v/v) for supported-liquid extraction (SLE) with methyl tert-butyl ether (MTBE) using Biotage Isolute SLE+ columns (Uppsala, SWE). […] Quantification of cannabinoids was achieved by comparing samples to standards prepared with known amounts of drug.
Plasma concentrations at each time point were averaged and pharmacokinetic parameters were calculated by noncompartmental analysis. Elimination rate constants were determined by linear regression of the terminal component of the concentration–time curve using GraphPad Prism 8.2 (La Jolla, USA). The log-linear trapezoidal method was used to calculated total drug exposure (area under concentration–time curve) using equations described previously.

BCRP [3] = molecular target: T1, BCRP; test: Inhibition of BCRP-mediated transport of prazosin (transwell, BCRP MDCK cells); conditions: for P (A > B) of prazosin in the presence of inhibitor / P (B > A) of prazosin in the presence of inhibitor: 10 µM inhibitor, 1 µM prazosin
wildtype MDCK cells = test: Bidirectional transwell transport assay, wildtype MDCK cell monolayers; conditions: wildtype MDCK cells, 10 µM cannabinoid; for P (A > B): apical to basolateral; for P (B > A): basolateral to apical
Method: as §2, §3, §1

BCRP [4] = molecular target: T1, BCRP; test: Bidirectional transwell substrate assay, MDCK cells expressing BCRP (with or without elacridar); conditions: for P (A > B): apical to basolateral; for P (B > A): basolateral to apical; for BCRP substrate status: human BCRP MDCK cells vs wildtype, with elacridar control
Method: as §2, §3, §1

[5] = set-up: method as in PMID 33155722; conditions: healthy individuals, oral cannabis decoction and oil containing 3–6 times the amount of CBDA compared to CBD; cited from earlier work
[6] = Bidirectional transwell transport assay, wildtype MDCK cell monolayers; conditions: dog, MDCK
Method: as §2, §3, §1

[7] = P-glycoprotein MDCK cells, 10 µM cannabinoid
[8] = mouse plasma, oral, administered as individual cannabinoid, doses mg/kg: CBD 25, CBDA 50, CBDVA 7, CBGA 7, THC 15, THCA 50
[9] = mouse plasma, oral, administered as individual cannabinoid, doses mg/kg: CBD 25, CBDA 50, CBDVA 7, THC 15, THCA 50
[10] = mouse plasma, oral, administered in full-spectrum extract, doses mg/kg: CBD 25, CBDA 50, CBDVA 7, CBGA 7, THC 15, THCA 50
[11] = mouse plasma, oral, equivalent doses
[12] = BCRP MDCK cells, 10 µM cannabinoid
[13] = BCRP MDCK cells, 10 µM cannabinoid, substrate threshold 1.5
[14] = P-glycoprotein MDCK cells, 10 µM cannabinoid, substrate threshold 2.5

Compound | P (A > B) of CBDA in the presence of inhibitor (BCRP [1]) | P (B > A) of CBDA in the presence of inhibitor (BCRP [1]) | P (A > B) (P-glycoprotein; [7]) | P (B > A) (P-glycoprotein; [7]) | P-glycoprotein substrate status (P-glycoprotein) | tmax [2, 8] [h] | AUC [2, 9] [µg·min/mL] | t1/2 [2, 9] [h] | AUC [2, 10] [µg·min/mL] | t1/2 [2, 10] [h] | tmax [2, 10] [h] | Total plasma exposure in full-spectrum extract relative to individual compound, fold lower [2, 11] | Detection in plasma following oral administration of the full-spectrum extract ([2]; mouse plasma) | P (A > B) of prazosin in the presence of inhibitor (BCRP [3]) | P (B > A) of prazosin in the presence of inhibitor (BCRP [3]) | r (transport efflux ratio) (wildtype MDCK cells) | P (A > B) (wildtype MDCK cells) | P (A > B) (BCRP [4]; [12]) | P (B > A) (BCRP [4]; [12]) | BCRP substrate status (BCRP [4]) | other results
CCCCCc1cc(O)c2c(c1)OC(C)(C)[C@@H]1CCC(C)=C[C@@H]21 [Δ^9-THC, Δ^9-tetrahydrocannabinol, reference compound] | 21 ± 3 × 10^−5 cm/s | 47 ± 4 × 10^−5 cm/s | 9 ± 3 × 10^−5 cm/s | 4 ± 1 × 10^−5 cm/s | not P-glycoprotein substrates | 1.5 | 116 | 3.5 | 62 | 5.5 | ≤ 1 | 2–4 × | detected | 18 ± 2 × 10^−2 cm/s | 201 ± 8 × 10^−2 cm/s | 0.3 ± 0.3 | 9 ± 3 × 10^−5 cm/s | 54 ± 17 × 10^−5 cm/s | 74 ± 28 × 10^−5 cm/s | weak substrates of BCRP | Cmax ([2]; mouse plasma, oral, administered as individual cannabinoid, doses mg/kg: CBD 25, THC 15, THCA 50): 341 ± 40 ng/mL; tmax ([2]; mouse plasma, oral, administered in full-spectrum extract, doses mg/kg: CBD 25, CBDA 50, CBDVA 7, CBGA 7, THC 15, THCA 50, listed as THC): 1 h; Cmax ([2]; mouse plasma, oral, administered in full-spectrum extract, doses mg/kg: CBD 25, THC 15, THCA 50): 127 ± 15 ng/mL; Effect on BCRP-mediated transport of prazosin (BCRP [3]; 10 µM, compared to vehicle): not prazosin transport; P (B > A) (wildtype MDCK cells): 3 ± 1 × 10^−5 cm/s; r (transport efflux ratio) (BCRP [4]; BCRP MDCK cells, 10 µM cannabinoid in the presence of 10 µM elacridar): 0.7 ± 0.2; r (transport efflux ratio) (BCRP [4]; [13]): 1.4 ± 0.5
C=C(C)[C@@H]1CCC(C)=C[C@H]1c1c(O)cc(CCC)c(C(=O)O)c1O [CBDVA, cannabidivarinic acid] | 8 ± 1 × 10^−5 cm/s | 63 ± 4 × 10^−5 cm/s | 14 ± 4 × 10^−5 cm/s | 22 ± 2 × 10^−5 cm/s | not P-glycoprotein substrates | 0.25 | 7459 | 2.5 | 3844 | 2 | 1 | 2–4 × | detected | 15 ± 3 × 10^−2 cm/s | 201 ± 4 × 10^−2 cm/s | 1.1 ± 0.2 | 22 ± 3 × 10^−5 cm/s | 24 ± 9 × 10^−5 cm/s | 47 ± 6 × 10^−5 cm/s | BCRP substrates | Effect on BCRP-mediated transport of CBDA (BCRP [1]; 10 µM, compared to vehicle): Neither CBD nor CBDVA affected CBDA transport via BCRP; r (transport efflux ratio) (P-glycoprotein; [14]): 1.6 ± 0.3; Cmax ([2]; mouse plasma, oral, administered as individual cannabinoid, doses mg/kg: CBDA 50, CBDVA 7, CBGA 7): 26000 ± 2000 ng/mL; Cmax ([2]; mouse plasma, oral, administered in full-spectrum extract, doses mg/kg: CBDA 50, CBDVA 7, CBGA 7): 11000 ± 1000 ng/mL; P (B > A) (wildtype MDCK cells): 25 ± 2 × 10^−5 cm/s; r (transport efflux ratio) (BCRP [4]; [13]): 2.0 ± 0.4
C=C(C)[C@@H]1CCC(C)=C[C@H]1c1c(O)cc(CCCCC)c(C(=O)O)c1O [CBDA, cannabidiolic acid] |  |  | 24 ± 7 × 10^−5 cm/s | 38 ± 4 × 10^−5 cm/s | not P-glycoprotein substrates |  |  |  |  |  |  |  | detected |  |  |  | 31 ± 8 × 10^−5 cm/s | 38 ± 11 × 10^−5 cm/s | 162 ± 24 × 10^−5 cm/s | BCRP substrates | r (transport efflux ratio) (P-glycoprotein; [14]): 1.5 ± 0.3; efflux ratio at 240 min, 10 µM (P-glycoprotein; human, MDCK-MDR1, r (transport efflux ratio), P-glycoprotein MDCK cells, 10 µM cannabinoid, substrate threshold 2.5): < 2.5; AUC ([2]; both, mouse, plasma, po, AUC, mouse plasma, oral, administered as individual cannabinoid, doses mg/kg: CBD 25, CBDA 50, CBDVA 7, THC 15, THCA 50): 1640 µg·min/mL; AUC ([2]; both, mouse, plasma, po, AUC, mouse plasma, oral, administered in full-spectrum extract, doses mg/kg: CBD 25, CBDA 50, CBDVA 7, CBGA 7, THC 15, THCA 50): 22800 µg·min/mL; Cmax ([2]; both, mouse, plasma, po, Cmax, mouse plasma, oral, administered as individual cannabinoid, doses mg/kg: CBDA 50, CBDVA 7, CBGA 7): 6000 ± 1000 ng/mL; Cmax ([2]; both, mouse, plasma, po, Cmax, mouse plasma, oral, administered in full-spectrum extract, doses mg/kg: CBDA 50, CBDVA 7, CBGA 7): 47000 ± 4000 ng/mL; half-life ([2]; both, mouse, plasma, po, oral, administered as individual cannabinoid, doses mg/kg: CBD 25, CBDA 50, CBDVA 7, THC 15, THCA 50): 3.3 h; half-life ([2]; both, mouse, plasma, po, oral, administered in full-spectrum extract, doses mg/kg: CBD 25, CBDA 50, CBDVA 7, CBGA 7, THC 15, THCA 50): 5.17 h; tmax ([2]; both, mouse, plasma, po, tmax, mouse plasma, oral, administered as individual cannabinoid, doses mg/kg: CBD 25, CBDA 50, CBDVA 7, CBGA 7, THC 15, THCA 50): 1.5 h; tmax ([2]; both, mouse, plasma, po, tmax, mouse plasma, oral, administered in full-spectrum extract, doses mg/kg: CBD 25, CBDA 50, CBDVA 7, CBGA 7, THC 15, THCA 50): ≤ 1 h; Total plasma exposure (AUC) in full-spectrum extract relative to individual compound, fold higher ([2]; mouse plasma, oral, 50 mg/kg, equivalent doses): ~14 × and 14 ×; Serum CBDA concentrations relative to serum CBD concentrations [5]: 20–30 times; Papp B→A at 240 min, 10 µM [6]: 370 ± 90 ×10⁻⁶ cm/s; efflux ratio at 240 min, 10 µM [6]: 1.2 ± 0.3; efflux ratio at 240 min, 10 µM (BCRP [4]; human, with elacridar 10 µM, r (transport efflux ratio), BCRP MDCK cells, 10 µM cannabinoid in the presence of 10 µM elacridar): 0.4 ± 0.4
